# PMC11204543, “Halenaquinol Blocks Staphylococcal Protein A Anchoring on Cell Wall Surface by Inhibiting Sortase A in Staphylococcus aureus” (Marine Drugs, 2024)
# Where “and” joins values, the source holds several entries; their conditions need not be identical. Identical values can stand only once. Entries after “also recorded” stand apart in the source; their conditions may differ. Counter-ions that a name gives are not always drawn. Like-named read-outs stand apart in the source and are kept apart here.
# Assays:
# S. aureus SrtA = settings: cited from earlier work
# S. mutans SrtA = settings: cited from earlier work
# [1] = target: T1, Recombinant SrtA from S. aureus ATCC6538p (Staphylococcus aureus, UniProt Q2FV99); assay: SrtA inhibition assay (fluorescence-based enzymatic assay, Abz-LPETG-Dnp substrate); type: biochemical; settings: for IC50: SrtA IC50, recombinant SrtA from S. aureus ATCC6538p, mean ± SD (n = 3); for SrtA inhibitory activity in words: similar to that of quercetin
# T1 construct: no tag is named in the print; made in house; host or cells: Escherichia coli
# Protocol: (§1) The SrtA inhibitory activity of compounds 1–6, along with that of a known SrtA inhibitor, quercetin [24], was evaluated in vitro using a fluorescence-based enzymatic assay. Recombinant SrtA from S. aureus ATCC6538p was expressed in Escherichia coli and was purified using nickel affinity chromatography. The cleavage of a synthetic peptide substrate by the SrtA enzyme emitted fluorescence, which was then measured. Table 1 presents the half maximal inhibitory concentration (IC50) values calculated from SrtA inhibition rates. […] As SrtA inhibitors act as anti-infective agents by disrupting bacterial pathogenesis without affecting microbial viability, minimum inhibitory concentration (MIC) values were examined to determine their effects on bacterial cell growth.
# To determine the type of inhibition, kinetic studies were performed with halenaquinol at IC50 or twofold IC50 based on a Lineweaver and Burk plot (Figure 2A). Inhibitor constants were obtained by a Dixon plot (Figure 2B). […] Moreover, the binding of halenaquinol to SrtA was reversible because the enzyme activity was recovered by dialysis, excluding the possible existence of a covalent bond between inhibitor and enzyme.
# The recombinant SrtA protein from S. aureus ATCC6538p was prepared using a previously described method. Each reaction comprised a 100 μL mixture containing a reaction buffer (50 mM Tris-HCl pH 7.5, 150 mM NaCl, and 5 mM CaCl2), 250 ng of synthetic fluorescent peptide substrate (Abz-LPETG-Dnp), 20 μg of SrtA, and varying concentrations of test samples. DMSO served as the negative control, while quercetin [24] was employed as the positive control. Test sample was dissolved in DMSO and then diluted with reaction buffer to yield a final DMSO concentration of 1%. The reaction mixture was aliquoted into a 96-well plate. Following the addition of SrtA, fluorescence intensity was determined using a microplate reader at excitation and emission wavelengths of 320 nm and 420 nm, respectively. The plate was then incubated for 1 h at 37 °C, and fluorescence intensity was measured. The effect of the inhibitor on SrtA was calculated as a percentage relative to the DMSO-treated control. The percentage of SrtA inhibition was calculated using the following equation: {1 − (Difference value of the test compound/Difference value of a negative control)} × 100. A 12-point, twofold serial dilution dose–response assay was performed independently in triplicate. The resultant dose–response concentration range was 128 to 0.1 μg/mL of inhibitor. Data were scaled to internal controls, and a four-parameter logistic model (SigmaPlot ver. 10.0) was used to fit the measured data and determine the IC50 values. In order to investigate the inhibition type and inhibition constant (Ki) values of halenaquinol, SrtA enzyme activity was monitored in various concentrations of substrate in the absence and presence of halenaquinol. All reactions were repeated three times and enzyme kinetics were evaluated using Lineweaver–Burk and Dixon plots.
# S. aureus ATCC6538p = assay: Antibacterial activity (CLSI broth dilution MIC); type: cell-based; settings: Staphylococcus aureus, 12 h
# Protocol: as §1
# An assessment of the antibacterial properties of the isolated compounds was conducted in accordance with the protocols provided by the Clinical and Laboratory Standard Institute (CLSI). The S. aureus ATCC6538p strain was cultivated overnight at 37 °C in Mueller–Hinton broth (MHB, BD Difco, Sparks, MD, USA). Subsequently, it was harvested using centrifugation, rinsed with sterilized deionized water, and adjusted to the optical density of a 0.5 McFarland standard (625 nm). Test compounds, initially dissolved in DMSO, were further diluted with MHB to achieve a range of 2-fold serial dilutions from 0.25 to 128 μg/mL (maintaining a final DMSO concentration of 1%). In a 96-well plate, 90 μL of the MHB containing the test compound were combined with 10 μL of broth inoculated with the bacterium (final bacterial concentration: 5 × 10^5 cfu/mL). Following a 12 h incubation at 37 °C, the MICs were determined as the lowest concentration at which bacterial growth was inhibited. Ampicillin (Duchefa, Amsterdam, The Netherlands) served as the reference standard.
# [2] = test system: SpA anchoring on cell wall surface of S. aureus Newman; assay: SpA cell wall surface anchoring after trypsin removal, Western blot with anti-SpA antibody; type: cell-based, Staphylococcus aureus; settings: trypsin-treated wild type, 1 h
# Protocol: The anchoring of SpA on the cell-wall surface in S. aureus was measured using Western blot analysis with monoclonal anti-SpA antibody (Figure 4). […] Then, trypsin-treated wild-type S. aureus cells were incubated in medium containing an SrtA inhibitor, halenaquinol, over a concentration range of 1-to-4 times the IC50 values.
# The effect of the test compound on the in vivo inhibition of S. aureus SrtA was investigated by quantifying the abundance of SpA, catalyzed by the transpeptidation of SrtA on the bacterial surface [26]. […] For this study, S. aureus Newman (wild-type), a human clinical isolate, and its isogenic srtA-deletion mutant (ΔsrtA) were utilized [6, 37]. These strains were inoculated into 5 mL of TSB and incubated for 16 h at 37 °C with shaking. Cultures were then diluted 1:100 into TSB and were grown until the OD600 reached approximately 0.5. Cells from a 10 mL culture were harvested, rinsed with phosphate-buffered saline (PBS, Sigma–Aldrich), suspended in 5 mL of PBS containing 0.2 mg/mL trypsin (Sigma-Aldrich), incubated at 37 °C with shaking for 1 h, and washed with PBS. Subsequently, the cells were incubated in 5 mL of TSB containing 1 mM phenylmethylsulfonyl fluoride (PMSF), with the test compound at 37 °C with shaking for 1 h. Negative control groups were treated with DMSO solvent instead of the test compound. Then, aliquots (1 mL) were removed, and the cells were harvested and stored at −80 °C.
# S. aureus cells, prepared as described above, were suspended in 1 mL of ice-cold PBS containing 1 mM PMSF. A 1% (w/v) solution of Sulfo-NHS-SS-Biotin was prepared, and it was added (100 μL) to 1 mL of cells, resulting in a final concentration of 1.5 mM Sulfo-NHS-SS-Biotin. The cells were then incubated with gentle shaking at 80 rpm for 2 h on ice and were collected using centrifugation (4000× g, 5 min, 4 °C). To halt the biotinylation reaction, cells were washed three times with 1 mL of ice-cold PBS containing 500 mM glycine. Next, the cells were suspended in 500 μL of lysis buffer containing 100 μg/mL lysostaphin (Sigma–Aldrich) and 2 mM PMSF. […]
# [3] = test system: SpA surface display on S. aureus Newman; assay: Immunofluorescence microscopy of SpA surface display; type: cell-based, Staphylococcus aureus; settings: 8 × IC50 (111.52 μM)
# Protocol: Figure 5 Fluorescence microscopy images of SpA surface display. […] BF identifies the bright-field microscopy view of fluorescence microscopy images. Scale bar, […].
# The surface display of SpA was visualized following established procedures. A solution of 0.01% poly-L-lysine (Sigma-Aldrich) was added to each well of an 8-well glass chamber slide (SPL) and incubated at 25 °C for 5 min to coat the slide. After washing each well with distilled water and ensuring complete drying, 1 mL of cells, prepared as described above for the re-expression of the cell surface protein, was suspended in PBS containing 0.05% Tween 80 (PBST) and was thoroughly vortexed. A total of 250 μL of suspension was removed and incubated at 25 °C for 20 min with 250 μL of PBS (2.4% paraformaldehyde, 0.006% glutaraldehyde, and 0.05% Tween 80). The fixed cells were washed twice with PBST, and 150 μL of cells were added to the coated slide and incubated at 25 °C for 5 min. […] After washing seven times, anti-fade fluorescence mounting medium (Abcam, Cambridge, UK) was added. […] Images were captured using AiryScan fluorescence detectors and a transmitted light detector (T-PMT) under 10× scan zoom, bidirectional scan, 4× averaging. All the images were analyzed in ZEN 2.1 software (Carl Zeiss).
# [4] = test system: srtA and spa mRNA expression in S. aureus Newman; assay: Semiquantitative reverse transcription PCR of srtA and spa mRNA; type: cell-based, Staphylococcus aureus
# Description: To ascertain whether halenaquinol inhibits the transcription of srtA or blocks its function at an enzyme level without affecting the expression of the srtA gene, the mRNA expression level of srtA in response to various concentrations and exposure times of halenaquinol was initially explored using semi-quantitative reverse transcription PCR (RT-PCR). Total RNA isolated from S. aureus Newman was transcribed into cDNA, and it was used as a template to amplify the target genes. A time-course analysis assessed the impact of halenaquinol on srtA expression at different intervals from 0 to 60 min. […] Furthermore, the expression level of srtA was analyzed after 40 min of incubation at various concentrations of halenaquinol.
# Figure 3 Effect of SrtA inhibitors on srtA and spa mRNA expression. S. aureus Newman cells were incubated in the presence of halenaquinol and quercetin. mRNA expression levels of cells were examined using semiquantitative RT-PCR. (A) The time courses of mRNA expression of gyrB and srtA were monitored. Total RNA was isolated from cells grown in medium containing 0.2% dimethyl sulfoxide (DMSO, negative control), halenaquinol or quercetin (positive control). (B) Cells were grown in medium containing the indicated concentrations of halenaquinol or quercetin. The gyrB gene was used as a loading control.
# The S. aureus Newman strain was inoculated into 5 mL of trypticase soy broth (TSB) and incubated overnight at 37 °C with shaking. Cultures were diluted 1:100 into TSB and grown until the OD600 reached approximately 0.3. Cultures (5 mL) were aliquoted, and the test compound was added with less than 0.2% DMSO. The negative control group was treated with DMSO only. Cultures were then incubated at 37 °C with shaking and harvested at specific incubation times. Then, 1 mL of each culture was centrifuged, and the pellet was stored at −80 °C. RNA was isolated using the easy-BLUE total RNA extraction kit (iNtRON Biotechnology, Boston, MA, USA). […]
# T1 sequence (Q2FV99 whole entry): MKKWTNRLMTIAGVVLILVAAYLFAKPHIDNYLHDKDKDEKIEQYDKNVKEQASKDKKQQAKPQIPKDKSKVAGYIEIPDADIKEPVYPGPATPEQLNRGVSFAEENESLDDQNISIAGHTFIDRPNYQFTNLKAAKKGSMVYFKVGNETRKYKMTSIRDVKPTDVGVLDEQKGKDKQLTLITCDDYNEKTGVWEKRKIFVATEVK
structure (smiles),measurement,setting,value
"O=S(=O)(O)c1ccccc1-c1nn2c(-c3ccncc3)nnc2s1 [compound 6e, 3-(4-pyridinyl)-6-(2-sodiumsulfonatephenyl)[1,2,4]triazolo [3,4-b][1,3,4]thiadiazole]",IC50,S. aureus SrtA; S. aureus SrtA,9.3 µM
O=C(NCCSSCCNC(=O)/C(Cc1ccc(O)c(Br)c1)=N/O)/C(Cc1ccc(O)c(Br)c1)=N/O [psammaplin A],IC50,S. aureus SrtA; S. aureus SrtA,47.4 µM
O=c1c(O)c(-c2cc(O)c(O)c(O)c2)oc2cc(O)cc(O)c12 [myricetin],IC50,S. mutans SrtA,15.48 µg/mL
"C[C@H]1OC(=O)c2cc3c(cc21)[C@@]1(C)CC[C@@H](O)c2coc(c21)C3=O [Compound 6, xestolactone A]",IC50,[1],47.5 µM
same,MIC,S. aureus ATCC6538p; ATCC6538P,395 µM and > 128 µg/mL
"C[C@@]12CCCc3coc(c31)C(=O)c1cc3c(O)ccc(OS(=O)(=O)O)c3cc12 [Compound 4, xestoquinol sulfate]",IC50,[1],> 320 µM
same,MIC,S. aureus ATCC6538p; ATCC6538P,320 µM and > 128 µg/mL
"CC1(C)S[C@@H]2[C@H](NC(=O)[C@H](N)c3ccccc3)C(=O)N2[C@H]1C(=O)O [Ampicillin, reference compound]",MIC,S. aureus ATCC6538p; ATCC6538P,0.4 µM and 0.1 µg/mL
"C[C@@]12CCC(=O)c3coc(c31)C(=O)c1cc3c(O)ccc(OS(=O)(=O)O)c3cc12 [Compound 1, halenaquinol sulfate]",IC50,[1],103 µM
same,SrtA inhibitory activity in words,[1],moderate inhibitory activities
same,MIC,S. aureus ATCC6538p; ATCC6538P,309 µM and > 128 µg/mL
"C[C@@]12CCC(=O)c3coc(c31)C(=O)c1cc3c(O)ccc(O)c3cc12 [Compound 2, halenaquinol]",Ki,[1],9.55 µM
same,type of inhibition,[1]; Lineweaver-Burk plot at IC50 or twofold IC50,mixed inhibitor
same,IC50,[1],13.9 µM
same,reversibility of binding to SrtA,[1]; enzyme activity recovered by dialysis,reversible
same,SrtA inhibitory potency relative to halenaquinol sulfate,[1]; ratio of IC50 values,approximately 9.2 times
same,anchoring of SpA on cell wall surface,[2]; 1 × IC50 (13.94 μM),no significant difference from the wild type
same,reduction of SpA anchoring,[2]; 2 × IC50 (27.88 μM),approximately 53%
same,reduction of SpA anchoring,[2]; 4 × IC50 (55.76 μM),~85%
same,SpA surface display / inhibition of SpA anchoring,[3],comparable to those for an srtA-deletion mutant; also recorded: significantly reduced
same,MIC,S. aureus ATCC6538p; ATCC6538P,383 µM and > 128 µg/mL
same,inhibition of the transcription of srtA and spA,"[4]; S. aureus Newman, semi-quantitative RT-PCR",does not inhibit
same,PCR band intensity representing mRNA expression of srtA and spa,"[4]; after 40 min of incubation, increasing concentrations",slightly increased
same,PCR band intensity representing srtA mRNA expression,"[4]; time course 0 to 60 min, gyrB consistent",increased over time
O=C(c1nc(-c2c[nH]c3cc(Br)ccc23)c[nH]1)c1c[nH]c2cc(O)ccc12 [bromotopsentin],IC50,S. aureus SrtA; S. aureus SrtA,39.6 µM
"C[C@]12CCCc3coc(c31)C(=O)c1cc3c(cc12)C(O)CCC3O (stereo partly drawn) [Compound 3, 13,14,15,16-tetrahydroxestoquinol]",IC50,[1],51.8 µM
same,MIC,S. aureus ATCC6538p; ATCC6538P,395 µM and > 128 µg/mL
"C[C@]12CCCc3coc(c31)C(=O)c1cc3c(cc12)C(=O)C=C(NCCS(=O)(=O)O)C3=O [Compound 5, secoadociaquinone B]",IC50,[1],131 µM
same,SrtA inhibitory activity in words,[1],moderate inhibitory activities
same,MIC,S. aureus ATCC6538p; ATCC6538P,290 µM and > 128 µg/mL
"O=c1c(O)c(-c2ccc(O)c(O)c2)oc2cc(O)cc(O)c12 [Quercetin, quercetin, reference compound]",IC50,[1],158 µM
same,MIC,"S. aureus ATCC6538p; S. aureus ATCC6538p growth, 37 °C, read-out: MIC",> 424 µM and > 128 µg/mL
COc1cc2ccnc3c2c(c1O)N(C)C=C3 [isoaaptamine],IC50,S. aureus SrtA; S. aureus SrtA,16.2 µM
"COc1ccc(/C(C#N)=C/c2cc(OC)ccc2OC)cc1 [(Z)-3-(2,5-dimethoxyphenyl)-2-(4-methoxyphenyl) acrylonitrile]",IC50,S. aureus SrtA; SrtA inhibition,9.2 µM
same,manner of binding the enzyme,S. aureus SrtA,reversible
same,type of inhibition,S. aureus SrtA,competitive inhibitor
